Assay results published in PubChem BioAssay AID179 (DTP/NCI, 2004).
Activity calls are given as the source filed them.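 How the source made its calls: active means compounds giving half or more protection of infected cells from virus-caused growth loss, again on retest; inactive means the rest.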

System: CEM cells HIV-1 protection, formazan growth assay
Experiment: NCI AIDS Antiviral Assay
Settings: for IC50: measured here: growth of uninfected CEM cells
How it was run: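 Protection of CEM cells against HIV-1 measured as cell growth via soluble formazan read-out, with five concentrations tested on both infected and uninfected cells; failure to protect may reflect toxicity.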

Structure (SMILES)	outcome	EC50 [µM]	IC50 [µM]
O=C1NC(=O)C2C1c1[nH]c3ccccc3c1C1CCCC12 (configuration not stated)	inactive	–	–
Cc1cc(O)c(/C=N/C(=S)NCc2ccccc2)c(=O)o1	–	> 200	> 200
CC(C)c1ccc(/C(C(=O)O)=C(\O)C(=O)O)cc1	–	> 200	107
NC(=O)c1cnc2cc(O)c(O)cc2c1	–	> 209	14.1
CN1C2Cc3cc4c(cc3[C@@]23Cc2ccc5c(c2[C@@H]1O3)OCO5)OCO4 (some centres not stated)	–	> 200	120
CC(=O)OCC1OC(n2c(=O)[nH]c(=O)c3n[nH]nc32)C(OC(C)=O)C(OC(C)=O)C1OC(C)=O (configuration not stated)	–	> 269	> 269
CC1=NN(c2ccccc2)C(=O)/C1=C\n1c(=S)[nH]c2ccccc21	–	> 200	87.1
O=C(CNc1ccc(Cl)cc1Cl)NC1C=Cc2ccc(S(=O)(=O)Nc3ccc(Cl)cc3Cl)cc2C1=O (configuration not stated)	–	> 200	> 200
CC1(C)COC2(C)N(c3ccccc3)C(=O)ON12 (configuration not stated)	–	> 200	> 200
O=C1/C(=C\c2cccc(Oc3ccccc3)c2)S(=O)(=O)C(c2ccccc2)N1c1ccccc1Cl (configuration not stated)	–	> 2	0.0427
O=C(Cc1ccccc1C(=O)O)c1ccccc1	–	> 200	> 200
CCCCCCCCCCCCCCCC(=O)OCC1OC(n2ccc(N)nc2=O)C(O)C1O (configuration not stated)	–	> 0.2	0.0129
COc1cc2c(cc1OC)CN1CCc3cc(OC)c(OC)cc3[C@@H]1C2	–	> 200	145
O=C(C(=O)c1cc(-c2ccccc2)nc2ccc3ccccc3c12)c1ccccc1	–	> 200	174
CN(C)CCCNc1ccnc2cc([N+](=O)[O-])ccc12	–	> 200	12.9
CC(O)C1OC(n2cnc3c(=O)[nH]cnc32)C(O)C1O (configuration not stated)	–	> 891	> 891
C=C(c1ccccc1)[P+](c1ccccc1)(c1ccccc1)c1ccccc1	–	> 20	0.219
COc1ccc2[nH]c3c(c2c1)[C@H]1CCC(C(C)(C)C)C[C@H]1[C@H]1C(=O)N(c2ccccc2)C(=O)[C@@H]31 (some centres not stated)	–	> 7.94	> 7.94
O=c1c(O)c(-c2ccc3c(c2)OCO3)oc2c(Cl)cc(Cl)cc12	–	> 100	> 100
CC1=NOC(=O)/C1=C/c1cccc2ccccc12	–	> 1050	> 1050
OC(C#CCN1CCCC1)(c1ccccc1)c1ccc(Br)cc1.[C-]#[O+].[C-]#[O+].[C-]#[O+].[C-]#[O+].[C-]#[O+].[C-]#[O+].[Co].[Co] (configuration not stated)	–	> 200	7.08
NC1=NNC2(C(=O)N1)c1ccccc1-c1ccccc12	–	> 200	46.8
N#CC(C#N)=C1NC(=O)CC(=O)N1	inactive	–	–

Structure (SMILES)	outcome	EC50 [µM]	IC50 [µM]
OCC(CN1CCCCC1)(CN1CCCCC1)CN1CCCCC1	–	> 50.1	> 50.1
c1ccc2c3c(ccc2c1)CN1CCCCC1C3 (configuration not stated)	–	> 676	49
COc1ccc2c(c1)c(OC)c(CC(O)C(C)(C)O)c(=O)n2C (configuration not stated)	–	> 200	> 200
O=C(O)c1ccc(CI)cc1	–	> 200	24.5
C=CC/C(C(=O)OC)=C(/C(=O)OC)N(CCC)CCC	–	> 200	33.9
CC[C@]1(O)CC[C@H]2[C@@H]3CCC4=CC(=O)CC[C@@H]4[C@H]3CC[C@@]21CC	–	> 200	49
CCCCCCCCCCOCCC(=O)O	–	> 200	89.1
CCOC(=O)c1ccc(CS(=O)(=O)c2ccc(C)cc2)c([N+](=O)[O-])c1	–	> 100	> 100
Cc1cc2occ(-c3ccc(Cl)cc3)c2c(=O)o1	–	> 20	> 20
Nc1nnc2c(-c3ccccc3)[nH]nc2n1	inactive	–	–
C[C@@H](NC(=O)c1ccccc1SC(=O)OCC[n+]1ccccc1)C(N)=O	–	2.82	> 200
Cc1nc(C(=O)O)c2ccccc2n1	inactive	–	–
O=C(O)c1ccc(-c2c3ccc(=O)cc-3oc3cc(O)ccc23)c(C(=O)O)c1	–	60.3	162
O=C1C=C(N2CC2)C(=O)C(N2CC2)=C1N1CC1	–	> 10.7	0.0324
CC(C)(O)[C@H]1CC[C@@]23CCCC(=O)C2(C1)C3 (some centres not stated)	inactive	–	–
CC12NN=NC1C(=O)NC2=O (configuration not stated)	–	> 200	> 200
Cc1nc2sc3c(c2c(=O)o1)CCCC3	–	> 200	33.1
O=[N+]([O-])C(/C=C(\Cl)[N+](=O)[O-])=C(Nc1ccccc1)Nc1ccccc1	–	> 200	6.61
CC(C)C1NC(=O)[C@H](C)OC(=O)[C@@H](C(C)C)NC(=O)[C@@H](C)OC(=O)C(C(C)C)NC(=O)[C@H](C)OC1=O (some centres not stated)	–	> 251	> 251
Cc1c2c(n3c(nc4ccccc43)c1C#N)NCC2	–	> 200	> 200
C/C(=N\NS(=O)(=O)c1ccc(C)cc1)c1ccc[n+]([O-])n1	inactive	–	–
O=C(O)c1cc2c(ncc3c(=O)n(-c4ccccc4)[nH]c32)s1	–	> 115	> 115
N#Cc1c(N=C/C=C/c2ccccc2)c(C(=O)Nc2ccccc2)n2c1CCC2	–	> 200	> 200

Structure (SMILES)	outcome	EC50 [µM]	IC50 [µM]
CCCC1CC(=O)NC(=O)C1C(=O)OC(C)(C)C (configuration not stated)	–	> 200	> 200
O=C(Cn1ccnc1[N+](=O)[O-])c1ccccc1	–	> 562	> 562
Cc1ccc(S(=O)(=O)Nc2nc3ccccc3c(=O)n2C2CCCCC2)cc1	–	> 200	> 200
COC1/C=C/OC2(C)Oc3c(C)c(O)c4c(O)c(c(/C=N/N5C(C)CN(Cc6cccc(C#N)c6)CC5C)c(O)c4c3C2=O)NC(=O)/C(C)=C\C=C\C(C)C(O)C(C)C(O)C(C)C(OC(C)=O)C1C (configuration not stated)	–	> 200	6.46
O=C1OC(c2ccccc2)=N/C1=C\c1ccc(Br)cc1	–	> 4.37	> 4.37
O=C(Nc1ccc(C2=NCCN2)cc1)c1cccc(C(=O)Nc2ccc(C3=NCCN3)cc2)c1Cl	–	49	155
CON(C)c1nc2ccccc2o1	–	> 200	107
Cc1c(Cl)ccc2c1NC(=O)C2(O)C1Cc2ccccc2C1=O (configuration not stated)	–	> 28.8	12.6
COc1ccc(/C=C2\CCC/C(=C\c3ccc(O)c(CN4CCCCC4)c3)C2=O)cc1	–	> 200	3.16
CCOC(=O)CCCSCCCC(=O)CCCSCCCC(=O)OCC	–	> 447	309
FC1=C2C3CCC(C3)C2C1(F)F (configuration not stated)	–	> 200	> 200
N#Cc1[nH]c(=O)n(-c2ccc(Cl)cc2)c1N	–	> 200	> 200
Oc1ccccc1-c1nnc2n1N=C(c1ccc(-c3ccccc3)cc1)CS2	–	> 200	15.5
CCN(CC)/[N+]([O-])=N/OCOC	–	> 200	> 200
CCC12C=CCN3CCC4(c5cc(C(c6ccccn6)c6cc7ccccc7n6C)c(OC)cc5N(C)C4C(O)(C(=O)OC)C1OC(C)=O)C32 (configuration not stated)	–	> 10.7	> 10.7
CN(C)c1nc(=Nc2cccc(Cl)c2)ss1	inactive	–	–
Cc1nc2ccc(Cl)cc2c(-n2ccnc2)c1CCn1ccnc1	–	> 200	89.1
c1ccc(-c2cc(-c3cccs3)c(-c3cccs3)o2)cc1	–	> 200	25.7
CCOP12(OCC)NC(=O)OC1(C(F)(F)F)c1ccccc1O2 (configuration not stated)	–	> 141	> 141
O=P(c1ccccc1)(c1ccccc1)C1CC=C2CCCCCC2C1 (configuration not stated)	–	> 5.37	> 5.37
CSc1nc2c(c(=O)[nH]1)N=C(c1ccccc1)CC(c1ccccc1)N2 (configuration not stated)	inactive	–	–
c1ccc2c(c1)C1CCCCCC21N1CCOCC1 (configuration not stated)	–	> 200	170
C=C1CC(C)(Cn2c(N)nc3nc[nH]c3c2=O)OC1=O (configuration not stated)	–	> 200	117

Structure (SMILES)	outcome	EC50 [µM]	IC50 [µM]
COC(=O)c1c2c(cc3c1CC1(C3)Cc3ccc4c(c3C1=O)CCC4)CCC2 (configuration not stated)	–	> 200	4.17
N#Cc1c(N2CCCC2)[nH]c(=O)[nH]c1=S	–	> 200	> 200
Cc1cccc(NC(=O)C(=O)C(C(=O)c2ccc3ccccc3c2)C2OC(=O)c3ccccc32)c1C (configuration not stated)	–	> 28.2	26.3
C[N+](C)=c1nc(N2CCOCC2)ss1	inactive	–	–
O=P(O)(O)OC1C(OP(=O)(O)O)C(OP(=O)(O)O)C(OP(=O)(O)O)C(OP(=O)(O)O)C1OP(=O)(O)O (configuration not stated)	–	> 200	> 200
COc1ccccc1NC(=S)N/N=C(/c1ccccc1)c1ccccn1	–	> 0.2	0.0813
CO/C(=N\N=C\c1cccc(C(F)(F)F)c1)c1ccncc1	–	> 117	12.6
CCOC(=S)SC1OC(COC(C)=O)C(OC(C)=O)C(OC(C)=O)C1OC(C)=O (configuration not stated)	–	> 200	35.5
O=S1(=O)CC2(N3CCCC3)CCCCC21 (configuration not stated)	–	> 1100	617
Nc1ccc(S(=O)(=O)C(=O)O)cc1	–	> 1230	> 1230
COc1ccc(NC2(Br)C(=O)NC(=O)NC2C(=O)O)cc1 (configuration not stated)	–	> 20	> 20
NC(=O)c1nnc2cc(F)ccc2c1N	–	> 200	74.1
COc1ccc2nc3cc(Cl)ccc3c(Sc3ccc(NC(C)=O)cc3)c2c1	–	> 12.6	> 12.6
CC(=O)NC1C(OCc2ccccc2)OC(CO)C(O)C1OC(C)C(=O)NC(C)C(=O)NC(CCC(=O)NCCCNc1c2ccccc2nc2cccc([N+](=O)[O-])c12)C(N)=O (configuration not stated)	–	> 100	1.15
COC1CC(OC2C(C)OC(OC3C(C)OC(OC4C(O)CC(O[C@H]5CC[C@@]6(C)C(=CC[C@]7(O)[C@@H]6C[C@@H](OC(C)=O)[C@@]6(C)[C@]7(O)CC[C@@]6(O)C(C)=O)C5)OC4C)CC3OC)CC2OC)OC(C)C1O (some centres not stated)	–	> 200	> 200
COc1ccc(/C(C#N)=C/c2cccc(N)c2)cc1	–	> 200	25.1
c1cnc2c(c1)ccc1cccnc12	–	> 200	1.17
COc1cc(OC)c(C(=O)c2cccs2)cc1N	inactive	–	–
CC(C#N)N(C(C)C#N)N(C)C (configuration not stated)	inactive	–	–
C1CCCCC2(CCCCCCCCC3(CCC1)SCCS3)SCCS2	–	> 200	> 200
